Reference: ChEMBL document CHEMBL1121987 (J Med Chem, 1982)
Active and inactive are the calls of the source. The rule behind the calls is not given here.

Legend:
[1] = pKa value was determined; format: physicochemical
[2] = biological target: T1, Dihydrofolate reductase (Mus musculus) (UniProt P00375); assay: Inhibitory tested against Dihydrofolate reductase enzyme from L1210 mouse leukemia cells using [3H]methotrexate as a radioligand; format: cell-based
T1 sequence (whole entry): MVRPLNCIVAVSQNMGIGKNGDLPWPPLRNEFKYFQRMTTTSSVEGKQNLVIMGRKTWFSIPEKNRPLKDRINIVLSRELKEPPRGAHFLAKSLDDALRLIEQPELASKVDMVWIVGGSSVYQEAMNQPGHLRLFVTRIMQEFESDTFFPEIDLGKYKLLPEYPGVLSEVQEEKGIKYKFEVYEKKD

[3] = organism: Mus musculus; assay: Growth inhibitory activity against L1210 mouse leukemia cells; format: functional
[4] = organism: Mus musculus; assay: Compound was tested for life span loss of mean body weight; format: functional
[5] = biological target: Dihydrofolate reductase (Lactobacillus casei) (UniProt P00381); assay: Inhibitory activity tested against dihydrofolate reductase from Lactobacillus casei; conditions: Lacticaseibacillus casei
[6] = test system: Mus musculus; assay: Compound was tested for life span of weight loss in mice at 4 mg/kg/day; format: functional
[7] = test system: Mus musculus; assay: In vivo life span increase in mice after 60 mg/kg (mg/kg)/day (q3d X 3) starting 24 hr of ip administration on; No activity; format: functional, organism-based; parameters: dose 60 mg/kg; conditions: at 60 mg/kg
[8] = organism: Mus musculus; assay: Compound was tested for life span of weight gain; format: functional
[9] = test system: Mus musculus; assay: In vivo life span increase in mice after 240 mg/kg (mg/kg)/day (q3d X 3) starting 24 hr of ip administration on; format: functional; conditions: route intraperitoneal
[10] = test system: Mus musculus; assay: In vivo life span increase in mice after 120 mg/kg (mg/kg)/day (q3d X 3) starting 24 hr of ip administration on; No activity; format: functional, organism-based; parameters: dose 120 mg/kg; conditions: at 120 mg/kg
[11] = test system: Mus musculus; assay: Compound was tested for life span of weight loss in mice at 1 mg/kg/day; format: functional
[12] = test system: Mus musculus; assay: In vivo life span increase in mice after 30 mg/kg (mg/kg)/day (q3d X 3) starting 24 hr of ip administration on;No activity; format: functional, organism-based; parameters: dose 30 mg/kg; conditions: at 30 mg/kg

Sequence of Dihydrofolate reductase (Lactobacillus casei) (P00381 whole entry): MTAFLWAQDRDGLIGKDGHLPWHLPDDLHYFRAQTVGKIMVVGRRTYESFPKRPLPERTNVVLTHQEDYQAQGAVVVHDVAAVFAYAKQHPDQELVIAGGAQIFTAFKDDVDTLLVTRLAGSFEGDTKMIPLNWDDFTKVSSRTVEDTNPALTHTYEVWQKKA

CC(=O)NCC(=O)O [ACETURIC ACID]
pKa [1]: 3.6

Nc1nc(N)c2nc(CNc3ccc(CNC(CO)CCC(=O)O)cc3)cnc2n1 (stereo not given)
ID50 [2]: 0.024 µM
Activity [3]: 1 µM
Loss [4]: 5%
ID50 [5]: 0.47 µM
ILS at 4 mg/kg/day [6]: 45%
Increase [7]: inactive
Weight gain [8]: 13%
Increase [9]: 22%
Increase [10]: inactive
ILS at 1 mg/kg/day [11]: 27%
Increase [12]: inactive

N[C@@H](CCC(=O)O)C(=O)O [GLUTAMIC ACID]
pKa [1]: 3.2

Nc1nc(N)c2nc(CNc3ccc(C(=O)N[C@@H](CCC(=O)O)C(=O)O)cc3)cnc2n1
ID50 [2]: 0.0022 µM
ID50 [5]: 0.027 µM
